Test results taken from patent publication US8143403B2 (Bristol-Myers Squibb Company, priority 2008, dated 2012).

Target: T1, Human CGRP Receptor (Homo sapiens, UniProt O60894+Q16602)
T1 construct: Crude membranes were prepared from SK-N-MC cells expressing CGRP receptors; endogenous in cells; host or cells: SK-N-MC cells (crude membranes)
Test: Radioligand binding assay, [125I]-CGRP displacement on SK-N-MC membranes
Conditions: displacement of [125I]-CGRP (18 pM final), 2 h room temperature
Protocol: Tissue Culture. SK-N-MC cells were grown at 37° C. in 5% CO2 as a monolayer in medium consisting of MEM with Earle's salts and L-glutamine (Invitrogen) supplemented with 10% fetal bovine serum (Invitrogen).
Membrane Preparation. Crude membranes were prepared from SK-N-MC cells expressing CGRP receptors. The cells were rinsed twice with phosphate-buffered saline (155 mM NaCl, 3.3 mM Na2HPO4, 1.1 mM KH2PO4, pH 7.4), and incubated for 5-10 min. at 4° C. in hypotonic lysis buffer consisting of 10 mM Tris (pH 7.4) and 5 mM EDTA. The cells were transferred from plates to polypropylene tubes (16×100 mm) and homogenized using a polytron. Homogenates were centrifuged at 32,000×g for 30 min. The pellets were resuspended in cold hypotonic lysis buffer with 0.1% mammalian protease inhibitor cocktail (Sigma) and assayed for protein concentration. The SK-N-MC homogenate was aliquoted and stored at −80° C. Radioligand Binding Assay. The compounds of invention were solubilized and carried through serial dilutions using 100% DMSO. Aliquots from the compound serial dilutions were further diluted 25 fold into assay buffer (50 mM Tris-Cl pH 7.5, 5 mM MgCl2, 0.005% Triton X-100) and transferred (volume 50 μl) into 96 well assay plates. [^125I]-CGRP (GE Healthcare or Perkin-Elmer) was diluted to 72 pM in assay buffer and a volume of 50 μl was added to each well. SK-N-MC membranes were thawed, diluted in assay buffer with fresh 0.1% mammalian protease inhibitor cocktail (Sigma), and re-homogenized. SK-N-MC homogenate (7 μg/well) was added in a volume of 100 μl. The assay plates were then incubated at room temperature for 2 h. Assays were stopped by addition of excess cold wash buffer (50 mM Tris-Cl pH 7.5, 0.1% BSA) immediately followed by filtration over glass fiber filters (Whatman GF/B) previously soaked in 0.5% PEI. Non-specific binding was defined with 1 μM beta-CGRP (Bachem). Protein bound radioactivity was determined using a gamma or scintillation counter. The resulting data was analyzed using a four parameter competitive binding equation (XLfit v2.0) and the IC50 was defined as the concentration of a compound of invention required to displace 50% of radioligand binding. Final assay concentration of [^125I]-CGRP was 18 pM. […] All compounds of invention were evaluated in at least two separate experiments.

T1 sequence (Q16602 23-461): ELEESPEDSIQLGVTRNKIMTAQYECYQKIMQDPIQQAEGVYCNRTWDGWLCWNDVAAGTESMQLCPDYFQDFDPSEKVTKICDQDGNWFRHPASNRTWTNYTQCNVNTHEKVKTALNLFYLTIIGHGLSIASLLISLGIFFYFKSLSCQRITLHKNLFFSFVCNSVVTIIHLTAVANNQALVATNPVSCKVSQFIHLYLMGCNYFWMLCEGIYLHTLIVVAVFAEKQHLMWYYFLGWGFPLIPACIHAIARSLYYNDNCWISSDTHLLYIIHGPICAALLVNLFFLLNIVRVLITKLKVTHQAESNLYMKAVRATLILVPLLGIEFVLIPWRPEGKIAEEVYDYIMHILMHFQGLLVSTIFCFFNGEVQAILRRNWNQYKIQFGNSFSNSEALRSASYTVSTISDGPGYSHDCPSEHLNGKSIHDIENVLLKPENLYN
T1 sequence (O60894 27-148): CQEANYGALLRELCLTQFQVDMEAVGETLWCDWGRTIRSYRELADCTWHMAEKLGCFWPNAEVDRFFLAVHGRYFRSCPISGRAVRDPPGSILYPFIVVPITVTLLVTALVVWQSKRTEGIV

Row | IC50 [nM] | Compound
1 | 4.14 | O=C(O[C@@H]1CC[C@@H](c2cc(F)ccc2F)Cc2cccnc21)N1CCC(n2c(=O)[nH]c3ncccc32)CC1 (racemic) [Example 11, (6,9-trans)-6-(2,5-Difluorophenyl)-6,7,8,9-tetrahydro-5H-cyclohepta[b]pyridin-9-yl 4-(2-oxo-2,3-dihydro-1H-imidazo[4,5-b]pyridin-1-yl)piperidine-1-carboxylate]
2 | 1.25 | O=C(O[C@@H]1CC[C@@H](c2cccc(F)c2F)Cc2cccnc21)N1CCC(N2CCc3ccccc3NC2=O)CC1 (relative stereo) [Example 3, (6,9-anti)-6-(2,3-difluorophenyl)-6,7,8,9-tetrahydro-5H-cyclohepta[b]pyridin-9-yl 4-(2-oxo-4,5-dihydro-1H-benzo[d][1,3]diazepin-3(2H)-yl)piperidine-1-carboxylate]
3 | 0.44 | N#Cc1ccc2c(n1)[C@H](OC(=O)N1CCC(n3c(=O)[nH]c4ncccc43)CC1)CC[C@@H](c1cccc(F)c1F)C2 (relative stereo) [Example 4, (6,9-trans)-2-cyano-6-(2,3-difluorophenyl)-6,7,8,9-tetrahydro-5H-cyclohepta[b]pyridin-9-yl 4-(2-oxo-2,3-dihydro-1H-imidazo[4,5-b]pyridin-1-yl)piperidine-1-carboxylate]
4 | 4.04 | O=C(C[C@@H]1CC[C@H](c2cccc(F)c2F)Cc2cccnc21)N1CCC(n2c(=O)[nH]c3ncccc32)CC1 (relative stereo) [Example 5, 1-(1-(2-((6,9-Cis)-6-(2,3-difluorophenyl)-6,7,8,9-tetrahydro-5H-cyclohepta[b]pyridin-9-yl)acetyl)piperidin-4-yl)-1H-imidazo[4,5-b]pyridin-2(3H)-one]
5 | 8.89 | O=C(O[C@@H]1CC[C@@H](c2ccccc2)Cc2cccnc21)N1CCC(n2c(=O)[nH]c3ncccc32)CC1 (relative stereo) [Example 10, (6,9-Trans)-6-Phenyl-6,7,8,9-tetrahydro-5H-cyclohepta[b]pyridin-9-yl 4-(2-oxo-2,3-dihydro-1H-imidazo[4,5-b]pyridin-1-yl)piperidine-1-carboxylate]
6 | 7.41 | O=C(O[C@@H]1CC[C@@H](c2ccc(F)c(F)c2)Cc2cccnc21)N1CCC(n2c(=O)[nH]c3ncccc32)CC1 (relative stereo) [Example 12, (6,9-Trans)-6-(3,4-Difluorophenyl)-6,7,8,9-tetrahydro-5H-cyclohepta[b]pyridin-9-yl 4-(2-oxo-2,3-dihydro-1H-imidazo[4,5-b]pyridin-1-yl)piperidine-1-carboxylate]
7 | 0.89 | O=C(C[C@@H]1CC[C@@H](c2cccc(F)c2F)Cc2cccnc21)N1CCC(n2c(=O)[nH]c3ncccc32)CC1 (single isomer, unassigned) [Example 6]
8 | > 100 | O=C(C[C@H]1CC[C@H](c2cccc(F)c2F)Cc2cccnc21)N1CCC(n2c(=O)[nH]c3ncccc32)CC1 (single isomer, unassigned) [Example 7]
9 | 1.6 | O=C(N[C@@H]1CC[C@@H](c2cccc(F)c2F)Cc2cccnc21)N1CCC(n2c(=O)[nH]c3ncccc32)CC1 (single isomer, unassigned) [Example 8]
10 | 2.86 | O=C1CCC(c2cccc(F)c2F)CCC1OC(=O)N1CCC(n2c(=O)[nH]c3ncccc32)CC1 (centres unmarked) [Example 1, 5-(2,3-difluorophenyl)-2-oxocycloheptyl 4-(2-oxo-2,3-dihydro-1H-imidazo[4,5-b]pyridin-1-yl)piperidine-1-carboxylate]
11 | > 1000 | O=C(N[C@H]1CC[C@H](c2cccc(F)c2F)Cc2cccnc21)N1CCC(n2c(=O)[nH]c3ncccc32)CC1 [Example 9, N-((6S,9S)-6-(2,3-difluorophenyl)-6,7,8,9-tetrahydro-5H-cyclohepta[b]pyridin-9-yl)-4-(2-oxo-2,3-dihydro-1H-imidazo[4,5-b]pyridin-1-yl)piperidine-1-carboxamide]
12 | 0.25 | Nc1cnc2c(c1)C[C@H](c1cccc(F)c1F)CC[C@H]2NC(=O)N1CCC(n2c(=O)[nH]c3ncccc32)CC1 [Example 14, N-((6R,9R)-3-amino-6-(2,3-difluorophenyl)-6,7,8,9-tetrahydro-5H-cyclohepta[b]pyridin-9-yl)-4-(2-oxo-2,3-dihydro-1H-imidazo[4,5-b]pyridin-1-yl)piperidine-1-carboxamide]
13 | 0.98 | CN(C)c1cnc2c(c1)C[C@H](c1cccc(F)c1F)CC[C@H]2OC(=O)N1CCC(n2c(=O)[nH]c3ncccc32)CC1 [Example 15, (6R,9R)-6-(2,3-difluorophenyl)-3-(dimethylamino)-6,7,8,9-tetrahydro-5H-cyclohepta[b]pyridin-9-yl 4-(2-oxo-2,3-dihydro-1H-imidazo[4,5-b]pyridin-1-yl)piperidine-1-carboxylate]
14 | 6.96 | CC(C)(C)Nc1ccc2c(n1)[C@H](OC(=O)N1CCC(n3c(=O)[nH]c4ncccc43)CC1)CC[C@@H](c1cccc(F)c1F)C2 [Example 16, (6R,9R)-2-(tert-Butylamino)-6-(2,3-difluorophenyl)-6,7,8,9-tetrahydro-5H-cyclohepta[b]pyridin-9-yl 4-(2-oxo-2,3-dihydro-1H-imidazo[4,5-b]pyridin-1-yl)piperidine-1-carboxylate]
15 | 0.8 | Nc1ccc2c(n1)[C@H](OC(=O)N1CCC(n3c(=O)[nH]c4ncccc43)CC1)CC[C@@H](c1cccc(F)c1F)C2 [Example 17, (6R,9R)-2-Amino-6-(2,3-difluorophenyl)-6,7,8,9-tetrahydro-5H-cyclohepta[b]pyridin-9-yl 4-(2-oxo-2,3-dihydro-1H-imidazo[4,5-b]pyridin-1-yl)piperidine-1-carboxylate]
16 | 0.78 | CN(C)c1ccc2c(n1)[C@H](OC(=O)N1CCC(n3c(=O)[nH]c4ncccc43)CC1)CC[C@@H](c1cccc(F)c1F)C2 [Example 18, (6R,9R)-6-(2,3-difluorophenyl)-2-(dimethylamino)-6,7,8,9-tetrahydro-5H-cyclohepta[b]pyridin-9-yl 4-(2-oxo-2,3-dihydro-1H-imidazo[4,5-b]pyridin-1-yl)piperidine-1-carboxylate]
17 | 0.76 | O=C(O[C@@H]1CC[C@@H](c2cccc(F)c2F)Cc2ccc(Cl)nc21)N1CCC(n2c(=O)[nH]c3ncccc32)CC1 [Example 19, (6R,9R)-2-Chloro-6-(2,3-difluorophenyl)-6,7,8,9-tetrahydro-5H-cyclohepta[b]pyridin-9-yl 4-(2-oxo-2,3-dihydro-1H-imidazo[4,5-b]pyridin-1-yl)piperidine-1-carboxylate]

Row | Compound | IC50 [nM]
18 | O=C(O[C@@H]1CC[C@@H](c2cccc(F)c2F)Cc2cccnc21)N1CCC(n2c(=O)[nH]c3ncccc32)CC1 (relative stereo) [Example 2] | 0.23
19 | O=C(O[C@@H]1CC[C@@H](c2cccc(F)c2F)Cc2cccnc21)N1CCC(n2c(=O)[nH]c3ncccc32)CC1 [Example 21] | 0.12
20 | (6,9-Trans)-6-(2,3-difluorophenyl)-6,7,8,9-tetrahydro-5H-cyclohepta[b]pyridin-9-yl 2-oxo-1,2-dihydrospiro[benzo[d][1,3]oxazine-4,4′-piperidine]-1′-carboxylate [Example 13] | 1.55
